Results taken from patent US5972636A (priority 1997, dated 1999).
Where two headings read alike, the source gives them in different places.

B1: cystatin B (protein, UniProt P04080 1-98, looked up)
Cystatin-B: MMCGAPSATQPATAETQHIADQVRSQLEEKENKKFPVFKAVSFKSQVVAGTNYFIKVHVGDEDFVHLRVFQSLPHENKPLTLSNYQTNKAKHDELTYF
B2: cystatin C: member of the cystatin superfamily (protein, UniProt P01034 27-146, looked up)
Cystatin-C: SSPGKPPRLVGGPMDASVEEEGVRRALDFAVGEYNKASNDMYHSRALQVVRARKQIVAGVNYFLDVELGRTTCTKTQPNLDNCPFHDQPHLKRKAFCSFQIYAVPWQGTMTLSKSTCQDA

Experiments:
[1] = system: new protease (multipain) from skeletal muscle; details: for Relative activity (%) NEW […] Ub-lysozyme / Relative activity (%) NEW […] OH/O2 - treated hemoglobin / Relative activity (%) NEW […] lysozyme: Table IV, 37° C. 1 h; for Relative activity (%) NEW […] Ub-lysozyme: DFP 1 mM, Cystatin A 4 uM, Hemin 0.1 mM, NEM 1 mM, Leupeptin 0.1 mM, E64 0.1 mM, NaOleate 0.125 mM, SDS 0.01%, o-Phenanthroline 0.1 mM; for Relative activity (%) NEW […] OH/O2 - treated hemoglobin / Relative activity (%) NEW […] lysozyme: concentrations as in E1; for effect of nucleotides on Ub-125I-lysozyme hydrolysis by the purified enzyme, in words / Relative activity (%), degradation of Ub-125I-lysozyme by the new activity: Table III; for Relative activity (%), degradation of Ub-125I-lysozyme by the new activity: 2 mM of the nucleotides or 10 mM PPi, 37° C. 1 hour
[2] = molecular target: T1, proteasome from skeletal muscle (Oryctolagus cuniculus, UniProt G1T4Q9); type: biochemical, rabbit
T1 construct: from tissue; host or cells: rabbit skeletal (psoas) muscle, proteasome fraction after Mono Q and Superose 6

[3] = system: 1500 kDa complex (proteasome-multipain); details: for effect of nucleotides on Ub-125I-lysozyme hydrolysis by the complex, in words / Realtive Activity (%) Complex, Ub-lysozyme degradation: Table VIII; for Realtive Activity (%) Complex, Ub-lysozyme degradation: 2 mM of the nucleotide or 10 mM PPi
[4] = system: proteasome-multipain complex formation; type: biochemical, rabbit; details: DFP 1 mM or cystatin 4 μM preincubated 10 min; AMP-PNP in place of ATP
[5] = system: ATP-ubiquitin-dependent proteolytic system; assay: ATP-ubiquitin-activated proteolysis in extracts (Fraction II) of psoas muscle; type: biochemical, rabbit
From the text: Psoas muscles from fed and fasted rabbits were used to obtain sufficient material for assay of the ATP-dependent system in cell-free extracts. Fasted rabbits were deprived of food for sufficient time to cause a weight loss of about 20% (similar to that seen in rats deprived of food for 1 day). The animals were anesthesized, and their psoas muscles dissected and homogenized as described previously. Fagan, J. M., et al., J. Biol. Chem., 261: 5705-5713 (1986).
After centrifugation at 10,000×g and then at 100,000×g, the muscle extracts were fractionated on DE52 cellulose to remove ubiquitin and most cell proteins, as described previously. Han, H. Q. et al., Federation Proc, 2:A564 (1988) and Waxman, L., et al., J. Biol. Chem., 262:2451-2457 (1987). The fraction containing the ATP-ubiquitin-dependent proteolytic system (Herskho, A., J. Biol. Chem., 263:15237-15240 (1988); Rechsteiner, M., Ann. Rev. Cell Biol., 3:1-30 (1987) and Fagan, J. M., et al. Biochem J., 243:335-343 (1987)) was eluted with 0.5M NaCl ("Fraction II"), dialyzed against a buffer containing Tris (50 mM, pH7.8), dithiothreitol (1 mM), and 20% glycerol, and concentrated before assay of activity. Degradation of endogenous muscle proteins was assayed by measuring the production of free tyrosine, which was determined fluorometrically after precipitation of proteins with trichloroacetic acid. Tischler, M. et al., J. Biol, Chem., 257:1613-1621 (1982) and Fulks, R., et al., J. Biol. Chem., 250:290-298 (1975). In addition, the degradation of ^14 C-casein was assayed by measuring the production of acid-soluble radioactivity. Waxman, L., et al., J. Biol. Chem., 262:2451-2457 (1987) and Fagan, J. M., Biochem J., 243:335-343 (1987).

[6] = Table VII, None = 100, 2 mM ATP, DFP 1 mM, Cystatin 4 μM, NEM 1 mM, Leupeptin 100 μM, E-64 100 μM, Sodium oleate 125 μM, SDS 0.01%, o-Phenanthroline 100 μM
[7] = Table VII, substrate Ub-125I-lysozyme, None = 100, 2 mM ATP, concentrations as in E5

Molecule	Relative activity (%) NEW […] Ub-lysozyme ([1]; None = 100, 2 mM ATP) [%]	Relative activity (%) NEW […] OH/O2 - treated hemoglobin ([1]; None = 100, 2 mM ATP) [%]	Relative activity (%) NEW […] lysozyme ([1]; None = 100, 2 mM ATP) [%]	Relative activity (%) […]-MCA [2] [%]	Realtive Activity (%) Complex, Ub-lysozyme degradation ([3]; None = 100) [%]	Relative activity (%), degradation of Ub-125I-lysozyme by the new activity ([1]; None = 100) [%]	Realtive Activity (%) Proteasome (sLLVT-MCA) [2] [%]	other results
Hemin	0	7	0	0				effect on Ub-conjugate breakdown by the new protease (multipain), in words ([1]; text): blocked conjugate-degrading activity; effect on Ub-conjugate breakdown by the new protease (multipain), in words ([1]; text, listed as hemin): is sensitive to
Nc1ncnc2c1ncn2[C@@H]1O[C@H](COP(=O)(O)OP(=O)(O)OP(O)(O)=S)[C@@H](O)[C@H]1O [ATP-γ-S, adenosine 5'-o-thiotriphosphate]					135	103		effect of nucleotides on Ub-125I-lysozyme hydrolysis by the complex, in words [3]: No stimulation; effect of nucleotides on Ub-125I-lysozyme hydrolysis by the purified enzyme, in words [1]: No stimulation
CC(=O)N[C@@H](CC(C)C)C(=O)N[C@@H](CC(C)C)C(=O)N[C@H](C=O)CCCNC(=N)N [Leupeptin]	69	73	72	83			83	effect on the complex, in words ([3]; Table VII): did not show any significant effect on the complex; Realtive Activity (%) Complex (Ub-125I-Lysozyme) [3, 6]: 75%; Realtive Activity (%) Multipain [1, 7]: 69%; inhibition of Ub-conjugate breakdown by the new protease ([1]; cystatin B at concentrations similar to cystatin A): 30%
Nc1ncnc2c1ncn2[C@@H]1O[C@H](COP(=O)(O)OP(=O)(O)O)[C@@H](O)[C@H]1O [ADP]					146	113		effect of nucleotides on Ub-125I-lysozyme hydrolysis by the complex, in words [3]: no significant effect; effect of nucleotides on Ub-125I-lysozyme hydrolysis by the purified enzyme, in words [1]: no significant effect
c1cnc2c(c1)ccc1cccnc12 [o-Phenanthroline]	48	54	55	60			60	inhibition of conjugate breakdown by the complex ([3]; Table VII): about 60%; Realtive Activity (%) Complex (Ub-125I-Lysozyme) [3, 6]: 57%; Realtive Activity (%) Multipain [1, 7]: 48%; effect on Ub-conjugate breakdown by the new protease (multipain), in words ([1]; text): showed some inhibition
CCCCCCCCCCCCOS(=O)(=O)[O-].[Na+] [SDS, sodium dodecyl sulfate]		42	46	125			125	Realtive Activity (%) Complex (Ub-125I-Lysozyme) [3]: 46%; Realtive Activity (%) Multipain [1]: 44%; Relative activity (%) NEW PROTEASE Ub-lysozyme [1]: 44%
O=c1ccn([C@@H]2O[C@H](COP(=O)(O)OP(=O)(O)OP(=O)(O)O)[C@@H](O)[C@H]2O)c(=O)[nH]1 [UTP]					174	108		
CCCCCCCC/C=C\CCCCCCCC(=O)[O-].[Na+] [NaOleate, Sodium oleate]	29	40	34	179			179	Realtive Activity (%) Complex (Ub-125I-Lysozyme) [3, 6]: 38%; Realtive Activity (%) Multipain [1, 7]: 29%
CCN1C(=O)C=CC1=O [NEM, N-ethylmaleimide]	29	30	27	37			37	inhibition of conjugate breakdown by the complex ([3]; Table VII): 65%; Realtive Activity (%) Complex (Ub-125I-Lysozyme) [3, 6]: 33%; Realtive Activity (%) Multipain [1, 7]: 29%; effect on Ub-conjugate breakdown by the new protease (multipain), in words ([1]; text): strongly inhibited this activity
Nc1ncnc2c1ncn2[C@@H]1O[C@H](COP(=O)(O)O)[C@@H](O)[C@H]1O [AMP]					99	130		effect of nucleotides on Ub-125I-lysozyme hydrolysis by the complex, in words [3]: no significant effect; effect of nucleotides on Ub-125I-lysozyme hydrolysis by the purified enzyme, in words [1]: no significant effect
Nc1ncnc2c1ncn2[C@@H]1O[C@H](COP(=O)(O)OP(=O)(O)OP(=O)(O)O)[C@@H](O)[C@H]1O [ATP]					458	743		ATP concentration of maximal stimulation of conjugate degradation, 1500 kDa complex [3]: about 0.7 mM; stimulation of degradation of Ub-125I-lysozyme, 125I-lysozyme, sLLVT-MCA or casein by the complex ([3]; 1500 kda proteasome-multipain complex): 3-5 fold; Km ([3]; read-out: Km for ATP, 1500 kDa complex, Ub-conjugate degradation): ≤ 300 µM; stimulation of Ub-lysozyme hydrolysis by the new protease ([1]; ATP 2 mM where stated, 60 min): 5 fold; stimulation of lysozyme degradation by the new protease ([1]; ATP 2 mM where stated, 60 min): 3 fold; Km ([1]; read-out: Km for ATP, multipain, Ub-conjugate degradation): ≤ 300 µM; effect on formation of the proteasome-multipain complex, in words [4]: allowed formation of a 1300 kDa complex; 14C-Casein Hydrolysis [5]: 2.3 ± 0.2 ug casein hydrolyzed/1 hr; Hydrolysis of Endogenous Proteins ([5]; Fasted rabbits, No addition 2.0 ± 0.1, ATP 5 mM, ubiquitin 15 μM): 10.8 ± 2.1 nmol try released/2 hr; Hydrolysis of Endogenous Proteins ([5]; Fed rabbits, No addition 0.6 ± 0.1, ATP 5 mM, ubiquitin 15 μM): 5.7 ± 0.9 nmol try released/2 hr; 14C-Casein Hydrolysis ([5]; Fed rabbits, No addition 1.1 ± 0.2, ATP 5 mM, ubiquitin 15 μM): 1.5 ± 0.2 ug casein hydrolyzed/1 hr
Nc1ccn([C@@H]2O[C@H](COP(=O)(O)OP(=O)(O)OP(=O)(O)O)[C@@H](O)[C@H]2O)c(=O)n1 [CTP]					410	373		stimulation of Ub-lysozyme hydrolysis by the new protease ([1]; ATP 2 mM where stated, 60 min): ~4 fold
Nc1nc2c(ncn2[C@@H]2O[C@H](COP(=O)(O)OP(=O)(O)OP(=O)(O)O)[C@@H](O)[C@H]2O)c(=O)[nH]1 [GTP]					326	435		stimulation of Ub-lysozyme hydrolysis by the new protease ([1]; ATP 2 mM where stated, 60 min): ~4 fold
CBZ-ala-arg-arg-CK								concentration that inactivates the 1500 kDa complex [3]: 50 µM; concentration that inactivates multipain [1]: 50 µM
CC(C)C[C@H](NC(=O)[C@H]1O[C@@H]1C(=O)O)C(=O)NCCCCNC(=N)N [E64]	100	100	100	100			100	effect on the complex, in words ([3]; Table VII): did not show any significant effect on the complex; Realtive Activity (%) Complex (Ub-125I-Lysozyme) [3, 6]: 96%; Realtive Activity (%) Multipain [1, 7]: 100%; effect on Ub-conjugate breakdown by the new protease (multipain), in words ([1]; text): not at all; effect on Ub-conjugate breakdown by the new protease (multipain), in words ([1]; text, listed as E-64): unable to inhibit multipain
B1								inhibition of Ub-conjugate breakdown by the new protease [1]: 55%
B2								effect on Ub-conjugate breakdown by the new protease (multipain), in words [1]: no significant effect
